According to patent US20090137664A1, “SAURURUS CERNUUS COMPOUNDS THAT INHIBIT CELLULAR RESPONSES TO HYPOXIA” (priority 2003, published 2009):

What was measured:
[1] = system: LOX IMVI; test: NCI in vitro cell line screen (SRB), Melanoma LOX IMVI; format: cell-based
Description: (§1) For exemplary purposes, an embodiment of the present invention was tested for activity with respect to certain cancer cell lines. The following Tables show results from in vitro 60-cell line antitumor testing from the US National Cancer Institute Developmental Therapeutics Program (NCI-DTP) on compound 2. The testing was in connection with the NCI's In Vitro Cell Line Screening Project (IVCLSP). Detailed information regarding the experiments and their interpretation is available from the NCI.

[2] = system: HIF-1; test: pTK-HRE3-luc reporter assay, hypoxia-induced HIF-1 activation in T47D cells; details: Homo sapiens, T47D, read-out: IC50, inhibition of hypoxic activation of HIF-1
[3] = system: M14; test: NCI in vitro cell line screen (SRB), Melanoma M14; format: cell-based
Description: as §1

[4] = system: SF-268; test: NCI in vitro cell line screen (SRB), CNS Cancer SF-268; format: cell-based
Description: as §1

[5] = system: RPMI-8226; test: NCI in vitro cell line screen (SRB), Leukemia RPMI-8226; format: cell-based
Description: as §1

[6] = system: SK-MEL-5; test: NCI in vitro cell line screen (SRB), Melanoma SK-MEL-5; format: cell-based
Description: as §1

[7] = system: NCI/ADR-RES; test: NCI in vitro cell line screen (SRB), Breast Cancer NCI/ADR-RES; format: cell-based
Description: as §1
Antitumor agents with tumor-specific selectivity are highly desired, in order to reduce the incidence of non-selective cytotoxicity to patients. […] This is of special importance since this NCI/ADR-RES cell line is resistant to many currently used antitumor agents such as adriamycin, taxol, and others.

[8] = system: OVCAR-5; test: NCI in vitro cell line screen (SRB), Ovarian Cancer OVCAR-5; format: cell-based
Description: as §1

[9] = system: 786-0; test: NCI in vitro cell line screen (SRB), Renal Cancer 786-0; format: cell-based
Description: as §1

[10] = system: OVCAR-8; test: NCI in vitro cell line screen (SRB), Ovarian Cancer OVCAR-8; format: cell-based
Description: as §1

[11] = system: BT-549; test: NCI in vitro cell line screen (SRB), Breast Cancer BT-549; format: cell-based
Description: as §1

[12] = Homo sapiens, read-out: LC50 (the source's name)
[13] = NCI/ADR-RES, Log10 Concentration −4.0 Molar
[14] = NCI/ADR-RES, Log10 Concentration −5.0 Molar
[15] = NCI/ADR-RES, Log10 Concentration −6.0 Molar
[16] = NCI/ADR-RES, Log10 Concentration −7.0 Molar
[17] = NCI/ADR-RES, Log10 Concentration −8.0 Molar

SMILES: COc1ccc([C@@H](O)[C@@H](C)Oc2ccc([C@H]3O[C@H](c4ccc(O[C@H](C)[C@H](O)c5ccc6c(c5)OCO6)c(OC)c4)[C@H](C)[C@H]3C)cc2OC)cc1OC [Compound 2, manassantin B]
- TGI [1]: >1.00E−4 Molar
- GI50 ([1]; Homo sapiens): 2.19 µM
- CC50 [1, 12]: > 100 µM
- Mean Optical Densities ([1]; Log10 Concentration −4.0 Molar): 0.353
- Percent Growth ([1]; Log10 Concentration −4.0 Molar): 12%
- Mean Optical Densities ([1]; Log10 Concentration −5.0 Molar): 0.396
- Percent Growth ([1]; Log10 Concentration −5.0 Molar): 18%
- Mean Optical Densities ([1]; Log10 Concentration −6.0 Molar): 0.703
- Percent Growth ([1]; Log10 Concentration −6.0 Molar): 66%
- Mean Optical Densities ([1]; Log10 Concentration −7.0 Molar): 0.743
- Percent Growth ([1]; Log10 Concentration −7.0 Molar): 73%
- Mean Optical Densities ([1]; Log10 Concentration −8.0 Molar): 0.778
- Percent Growth ([1]; Log10 Concentration −8.0 Molar): 78%
- IC50 [2]: 0.003 µM
- TGI [3]: >1.00E−4 Molar
- GI50 ([3]; Homo sapiens): 4.19 µM
- CC50 [3, 12]: > 100 µM
- Mean Optical Densities ([3]; Log10 Concentration −4.0 Molar): 0.439
- Percent Growth ([3]; Log10 Concentration −4.0 Molar): 12%
- Mean Optical Densities ([3]; Log10 Concentration −5.0 Molar): 0.521
- Percent Growth ([3]; Log10 Concentration −5.0 Molar): 30%
- Mean Optical Densities ([3]; Log10 Concentration −6.0 Molar): 0.764
- Percent Growth ([3]; Log10 Concentration −6.0 Molar): 83%
- Mean Optical Densities ([3]; Log10 Concentration −7.0 Molar): 0.843
- Percent Growth ([3]; Log10 Concentration −7.0 Molar): 100%
- Mean Optical Densities ([3]; Log10 Concentration −8.0 Molar): 0.809
- Percent Growth ([3]; Log10 Concentration −8.0 Molar): 93%
- TGI [4]: >1.00E−4 Molar
- GI50 ([4]; Homo sapiens): 4.96 µM
- CC50 [4, 12]: > 100 µM
- Mean Optical Densities ([4]; Log10 Concentration −4.0 Molar): 0.685
- Percent Growth ([4]; Log10 Concentration −4.0 Molar): 27%
- Mean Optical Densities ([4]; Log10 Concentration −5.0 Molar): 0.811
- Percent Growth ([4]; Log10 Concentration −5.0 Molar): 40%
- Mean Optical Densities ([4]; Log10 Concentration −6.0 Molar): 1.135
- Percent Growth ([4]; Log10 Concentration −6.0 Molar): 73%
- Mean Optical Densities ([4]; Log10 Concentration −7.0 Molar): 1.238
- Percent Growth ([4]; Log10 Concentration −7.0 Molar): 83%
- Mean Optical Densities ([4]; Log10 Concentration −8.0 Molar): 1.213
- Percent Growth ([4]; Log10 Concentration −8.0 Molar): 81%
- TGI [5]: 1.45E−5 Molar
- GI50 ([5]; Homo sapiens): 0.337 µM
- Mean Optical Densities ([5]; Log10 Concentration −4.0 Molar): 0.213
- Percent Growth ([5]; Log10 Concentration −4.0 Molar): −33%
- Mean Optical Densities ([5]; Log10 Concentration −5.0 Molar): 0.356
- Percent Growth ([5]; Log10 Concentration −5.0 Molar): 6%
- Mean Optical Densities ([5]; Log10 Concentration −6.0 Molar): 0.532
- Percent Growth ([5]; Log10 Concentration −6.0 Molar): 34%
- Mean Optical Densities ([5]; Log10 Concentration −7.0 Molar): 0.737
- Percent Growth ([5]; Log10 Concentration −7.0 Molar): 67%
- Mean Optical Densities ([5]; Log10 Concentration −8.0 Molar): 0.766
- Percent Growth ([5]; Log10 Concentration −8.0 Molar): 72%
- TGI [6]: 1.85E−6 Molar
- GI50 ([6]; Homo sapiens): < 0.01 µM
- CC50 [6, 12]: 9.04 µM
- Mean Optical Densities ([6]; Log10 Concentration −4.0 Molar): 0.097
- Percent Growth ([6]; Log10 Concentration −4.0 Molar): −79%
- Mean Optical Densities ([6]; Log10 Concentration −5.0 Molar): 0.222
- Percent Growth ([6]; Log10 Concentration −5.0 Molar): −53%
- Mean Optical Densities ([6]; Log10 Concentration −6.0 Molar): 0.771
- Percent Growth ([6]; Log10 Concentration −6.0 Molar): 19%
- Mean Optical Densities ([6]; Log10 Concentration −7.0 Molar): 1.053
- Percent Growth ([6]; Log10 Concentration −7.0 Molar): 38%
- Mean Optical Densities ([6]; Log10 Concentration −8.0 Molar): 0.980
- Percent Growth ([6]; Log10 Concentration −8.0 Molar): 33%
- inhibition of the NCI/ADR-RES breast tumor cell line [7]: potently inhibits
- GI50 ([7]; Homo sapiens, NCI/ADR-RES): 0.107 µM
- CC50 ([7]; Homo sapiens, NCI/ADR-RES, read-out: LC50 (the source's name)): > 100 µM
- TGI ([7]; NCI/ADR-RES): >1.00E−4 Molar
- Mean Optical Densities [7, 13]: 0.982
- Percent Growth [7, 13]: 5%
- Mean Optical Densities [7, 14]: 1.133
- Percent Growth [7, 14]: 20%
- Mean Optical Densities [7, 15]: 1.389
- Percent Growth [7, 15]: 45%
- Mean Optical Densities [7, 16]: 1.445
- Percent Growth [7, 16]: 50%
- Mean Optical Densities [7, 17]: 1.518
- Percent Growth [7, 17]: 57%
- TGI [8]: >1.00E−4 Molar
- CC50 [8, 12]: > 100 µM
- Mean Optical Densities ([8]; Log10 Concentration −4.0 Molar): 0.713
- Percent Growth ([8]; Log10 Concentration −4.0 Molar): 11%
- Mean Optical Densities ([8]; Log10 Concentration −5.0 Molar): 0.752
- Percent Growth ([8]; Log10 Concentration −5.0 Molar): 26%
- Mean Optical Densities ([8]; Log10 Concentration −6.0 Molar): 0.862
- Percent Growth ([8]; Log10 Concentration −6.0 Molar): 68%
- Mean Optical Densities ([8]; Log10 Concentration −7.0 Molar): 0.853
- Percent Growth ([8]; Log10 Concentration −7.0 Molar): 65%
- Mean Optical Densities ([8]; Log10 Concentration −8.0 Molar): 0.696
- Percent Growth ([8]; Log10 Concentration −8.0 Molar): 4%
- TGI [9]: >1.00E−4 Molar
- GI50 ([9]; Homo sapiens): 7.74 µM
- CC50 [9, 12]: > 100 µM
- Mean Optical Densities ([9]; Log10 Concentration −4.0 Molar): 0.806
- Percent Growth ([9]; Log10 Concentration −4.0 Molar): 38%
- Mean Optical Densities ([9]; Log10 Concentration −5.0 Molar): 0.888
- Percent Growth ([9]; Log10 Concentration −5.0 Molar): 46%
- Mean Optical Densities ([9]; Log10 Concentration −6.0 Molar): 1.309
- Percent Growth ([9]; Log10 Concentration −6.0 Molar): 84%
- Mean Optical Densities ([9]; Log10 Concentration −7.0 Molar): 1.361
- Percent Growth ([9]; Log10 Concentration −7.0 Molar): 89%
- Mean Optical Densities ([9]; Log10 Concentration −8.0 Molar): 1.398
- Percent Growth ([9]; Log10 Concentration −8.0 Molar): 92%
- TGI [10]: >1.00E−4 Molar
- GI50 ([10]; Homo sapiens): 23.7 µM
- CC50 [10, 12]: > 100 µM
- Mean Optical Densities ([10]; Log10 Concentration −4.0 Molar): 0.873
- Percent Growth ([10]; Log10 Concentration −4.0 Molar): 46%
- Mean Optical Densities ([10]; Log10 Concentration −5.0 Molar): 0.952
- Percent Growth ([10]; Log10 Concentration −5.0 Molar): 53%
- Mean Optical Densities ([10]; Log10 Concentration −6.0 Molar): 1.298
- Percent Growth ([10]; Log10 Concentration −6.0 Molar): 82%
- Mean Optical Densities ([10]; Log10 Concentration −7.0 Molar): 1.092
- Percent Growth ([10]; Log10 Concentration −7.0 Molar): 65%
- Mean Optical Densities ([10]; Log10 Concentration −8.0 Molar): 1.311
- Percent Growth ([10]; Log10 Concentration −8.0 Molar): 83%
- TGI [11]: 1.32E−5 Molar
- GI50 ([11]; Homo sapiens): 1.07 µM
- CC50 [11, 12]: > 100 µM
- Mean Optical Densities ([11]; Log10 Concentration −4.0 Molar): 0.474
- Percent Growth ([11]; Log10 Concentration −4.0 Molar): −22%
- Mean Optical Densities ([11]; Log10 Concentration −5.0 Molar): 0.620
- Percent Growth ([11]; Log10 Concentration −5.0 Molar): 3%
- Mean Optical Densities ([11]; Log10 Concentration −6.0 Molar): 0.813
- Percent Growth ([11]; Log10 Concentration −6.0 Molar): 51%
- Mean Optical Densities ([11]; Log10 Concentration −7.0 Molar): 0.868
- Percent Growth ([11]; Log10 Concentration −7.0 Molar): 65%
- Mean Optical Densities ([11]; Log10 Concentration −8.0 Molar): 0.838
- Percent Growth ([11]; Log10 Concentration −8.0 Molar): 58%
